# Test results as given in patent US5873359A, “Methods and devices for treating pulmonary vasoconstriction and asthma” (The General Hospital Corporation, priority 1994, dated 1999).
# Tests used:
# [1] = system: U46619-induced pulmonary vasoconstriction; assay: Inhaled NO in lambs with U46619-induced pulmonary vasoconstriction; assay type: in vivo, Suffolk lambs
# Description: Eight Suffolk lambs weighing 25-35 kg underwent a sterile thoracotomy in order to place a left atrial line, tracheostomy and femoral artery line under general endotracheal anesthesia with halothane/oxygen three days before study. After three days of recovery the lambs underwent sterile placement of a 7 French thermal dilution pulmonary artery monitoring catheter under local anesthesia.
# Awake unanesthetized lambs were studied in order to avoid general anesthesia which can blunt hypoxic vasoconstriction. Lambs were placed in a Babraham cage and allowed to drink and eat ad lib. Two studies were performed 2 days apart on each of six lambs. After the study the lambs were sacrificed with an overdose of barbiturate and heir lungs were fixed, stained and examined by light microscopy for pathological changes.
# On the first study day lambs breathing 60-70% oxygen were given an infusion of a potent pulmonary vasoconstrictor, the stable endoperoxide analog (5Z, 9α, 13E, 15S)-11,9-(Epoxymethano)prosta-5,13-dien-1-oic acid (U46619, The Upjohn Company, Kalamazoo, Mich.) of thromboxane at a rate of 0.4-0.8 μg/kg/min. The tracheostomy was connected to a non-rebreathing circuit consisting of a 5 liter reservoir bag and one way valves to isolate inspired from expired gas. Expired gas was scavenged and discarded. The inspired gas was a precise mixture of oxygen and nitrogen immediately diluted with NO to produce the correct inspired concentration. Using volumetrically calibrated flowmeters, varying quantities of NO were mixed with N2 to obtain the desired inspired NO concentration at an inspired oxygen concentration (Fi O2) of 0.6-0.7. The reservoir bag was emptied after each level of NO inhalation. The residence half time of NO in the gas reservoir was 15 seconds or less to minimize conversion to NO2. NO was obtained from Air Products and Chemicals, Inc., Allentown, Pa. as a mixture of 235 ppm NO in pure N2. […] Fontijin, Anal. Chem. 27:1903 (1981).
# Each level of NO exposure was followed by six minutes of breathing the oxygen mixture without NO (FIG. 2). A second exposure to NO was examined for similar periods. Subsequently, a control period breathing the oxygen mixture was studied six minutes after ceasing U46619 infusion. At each three and six minute time period after administering or discontinuing NO during the study, we measured mean and phasic pulmonary artery pressure (PAP), left atrial pressure (LAP), systemic arterial pressure (SAP) and central venous pressure (CVP). All pressures were recorded on a Hewlett Packard multi-channel strip chart recorder with transducers zeroed to atmospheric pressure at the mid point of the thorax (e.g., see FIG. 3). Cardiac output (CO) was measured by thermal dilution as the average of two determinations injecting 5 ml of 0° C. Ringers lactate. Pulmonary vascular resistance (PVR) and systemic vascular resistance (SVR) were computed by standard formulae; PVR measured at each inhaled NO concentration is shown in FIG. 4. Appropriate statistical analyses were performed, and all data were expressed as mean ± standard error.
# [2] = system: pulmonary hypertension in ARDS; assay: Inhaled NO versus i.v. prostacyclin in adult with ARDS (first subject); assay type: in vivo, human; settings: for QVA /QT: sulphur hexafluoride, from 38%
# Experimental: First subject. The patient had suffered for three weeks from adult respiratory distress syndrome (ARDS) due to aspiration pneumonia. There was diffuse pulmonary edema and a large QVA /QT (30%). After 21 days of venovenous extracorporeal membrane oxygenator support (3 liters/min blood flow), the mean PAP was 55 mm Hg.
# The short term effects of inhaled nitric oxide were compared with those of i.v. prostacyclin (PGI2; 5ng/kg/min). Mean pulmonary arterial pressure (PAP), right ventricular ejection fraction (RVEF) and gas exchange variables were evaluated. RVEF was assessed by thermodilution, and gas exchange alterations were analyzed using the multiple inert gas elimination technique (MIGET). MIGET and RVEF date were obtained on two different occasions. Ventilator settings were tidal volume 6 ml/kg, respiratory rate 14/min, Fi O2 0.4-0.48 and 5 cm H2 O of PEEP (positive end expiratory pressure).
# [3] = regression vs NO concentration, eight lambs
compound,measurement,setting,value
"[N]=O [NO, nitric oxide]",PA pressure,[1]; 5 ppm NO (0.89 μg/kg/min),significantly reduced the PA pressure
same,vasodilator response,[1]; 40 or 80 ppm NO,almost complete vasodilator response
same,PAP,"[1]; 80 ppm NO for one hour, four lambs",pulmonary vasodilation to a normal PAP
same,time to nearly maximal vasodilator effect,[1]; FIG. 3,within three minutes
same,pulmonary hypertension after NO inhalation,"[1]; after 80 ppm NO for one hour, four lambs",pulmonary hypertension recurring after NO inhalation
same,onset of pulmonary vasodilation,[1]; after beginning NO inhalation,within seconds
same,return to prior level of vasoconstriction after ceasing NO,[1]; after ceasing to inhale NO,within three to six minutes
same,pulmonary vasoconstriction and pulmonary hypertension,[1]; all dose levels of NO (5-80 ppm),prompt reduction of the pulmonary vasoconstriction and pulmonary hypertension
same,CO,[1]; [3],no significant change
same,SVR,[1]; [3],no significant change
same,mean SAP,[1]; [3],no significant change
same,vasodilator response of second exposure,"[1]; second exposure to 5, 10 and 20 ppm NO",no significant reduction from the prior series of exposures
same,decrease of mean PAP,[2]; 18 ppm NO in oxygen,12-14 mm Hg
same,mean PAP,[2]; 18 ppm NO in oxygen,38-42 mm Hg
same,reduction of PVR,[2]; 18 ppm NO in oxygen,44%
same,wedge pressure,"[2]; 18 ppm NO in oxygen, remaining constant",~15 mm Hg
same,cardiac output,"[2]; 18 ppm NO in oxygen, unchanged",~7 L/min
same,QVA /QT,[2]; 18 ppm NO,26%
same,QVA /QT,[2]; 36 ppm NO,33%
same,additional vasodilation,[2]; increasing NO concentration to 36 ppm,2-5 mm Hg
same,change of systemic arterial pressure,[2]; inhaled NO,no change of systemic arterial pressure
same,PAP and RVEF,"[2]; inhaled NO and i.v. PGI2, text",lowered PAP and improved RVEF
same,"PaO2, right-to-left shunt and VD /VT","[2]; inhaled NO, in contrast to PGI2",increased PaO2 and decreased right-to-left shunt and VD /VT
same,MAP,"[2]; occasion #1, NO 18 ppm",78 mm Hg
same,PAP,"[2]; occasion #1, NO 18 ppm",42 mm Hg
same,PCWP,"[2]; occasion #1, NO 18 ppm",15 mm Hg
same,PaO2,"[2]; occasion #1, NO 18 ppm",146 torr
same,QA /QT,"[2]; occasion #1, NO 18 ppm",26%
same,VD /VT,"[2]; occasion #1, NO 18 ppm",43%
same,low VD /Q,"[2]; occasion #1, NO 18 ppm",1%
same,MAP,"[2]; occasion #1, NO 36 ppm",75 mm Hg
same,PAP,"[2]; occasion #1, NO 36 ppm",37 mm Hg
same,PCWP,"[2]; occasion #1, NO 36 ppm",15 mm Hg
same,PaO2,"[2]; occasion #1, NO 36 ppm",127 torr
same,QA /QT,"[2]; occasion #1, NO 36 ppm",33%
same,VD /VT,"[2]; occasion #1, NO 36 ppm",40%
same,low VD /Q,"[2]; occasion #1, NO 36 ppm",0%
same,MAP,"[2]; occasion #2, NO 18 ppm",88 mm Hg
same,PAP,"[2]; occasion #2, NO 18 ppm",38 mm Hg
same,PCWP,"[2]; occasion #2, NO 18 ppm",14 mm Hg
same,PaO2,"[2]; occasion #2, NO 18 ppm",127 torr
same,RVEF,"[2]; occasion #2, NO 18 ppm",36%
same,MAP,"[2]; occasion #2, NO 36 ppm",86 mm Hg
same,PAP,"[2]; occasion #2, NO 36 ppm",36 mm Hg
same,PCWP,"[2]; occasion #2, NO 36 ppm",12 mm Hg
same,PaO2,"[2]; occasion #2, NO 36 ppm",113 torr
same,RVEF,"[2]; occasion #2, NO 36 ppm",39%
